Reference: PubChem BioAssay AID192 (DTP/NCI, 2004)
Where “and” joins values, the source holds several entries; their conditions need not be identical. Equal values may be shown once. Inconclusive results and toxic doses are left out.

Tested on: BDF1 mice, B16 melanoma ip, median survival T/C
Test: NCI In Vivo Anticancer Drug Screen. Data for tumor model B16 Melanoma (intraperitoneal) in B6D2F1 (BDF1) mice
Details: endpoint: median survival time, higher = longer survival
Method in brief: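 Read-out: survival or tumor size, given as treated/control ratio. Controls received vehicle only; animals bore transplantable tumors.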

[1] = dose: 100.0 mg/kg/injection, schedule: Q04DX003 (ip), vehicle: saline with Tween-80
[2] = dose: 100.0 mg/kg/injection, schedule: Q01DX009 (ip), vehicle: saline with Tween-80
[3] = dose: 200.0 mg/kg/injection, schedule: Q01DX009 (ip), vehicle: saline with Tween-80
[4] = dose: 6.25 mg/kg/injection, schedule: Q01DX009 (ip), vehicle: Klucel (hydroxypropylcellulose) (HPC)
[5] = dose: 12.5 mg/kg/injection, schedule: Q01DX009 (ip), vehicle: Klucel (hydroxypropylcellulose) (HPC)
[6] = dose: 25.0 mg/kg/injection, schedule: Q01DX009 (ip), vehicle: Klucel (hydroxypropylcellulose) (HPC)
[7] = dose: 25.0 mg/kg/injection, schedule: Q04DX003 (ip), vehicle: saline with Tween-80
[8] = dose: 100.0 mg/kg/injection, schedule: Q01DX009 (ip), vehicle: Klucel (hydroxypropylcellulose) (HPC)
[9] = dose: 200.0 mg/kg/injection, schedule: Q01DX009 (ip), vehicle: Klucel (hydroxypropylcellulose) (HPC)
[10] = dose: 0.78 mg/kg/injection, schedule: Q01DX009 (ip), vehicle: saline
[11] = dose: 1.56 mg/kg/injection, schedule: Q01DX009 (ip), vehicle: saline
[12] = dose: 6.25 mg/kg/injection, schedule: Q01DX009 (ip), vehicle: saline
[13] = dose: 12.5 mg/kg/injection, schedule: Q01DX009 (ip), vehicle: saline
[14] = dose: 50.0 mg/kg/injection, schedule: Q01DX009 (ip), vehicle: saline with Tween-80
[15] = dose: 12.5 mg/kg/injection, schedule: Q01DX009 (ip), vehicle: saline with Tween-80
[16] = dose: 25.0 mg/kg/injection, schedule: Q01DX009 (ip), vehicle: saline with Tween-80
[17] = dose: 6.25 mg/kg/injection, schedule: Q01DX009 (ip), vehicle: saline with Tween-80
[18] = dose: 50.0 mg/kg/injection, schedule: Q01DX009 (ip), vehicle: Klucel (hydroxypropylcellulose) (HPC)
[19] = dose: 100.0 mg/kg/injection, schedule: Q01DX009 (ip), vehicle: saline

With `Cc1nc(C(N)=O)c(=O)[nH]c1C` the T/C (dose: 12.5 mg/kg/injection, schedule: Q04DX003 (ip), vehicle: saline) was 97 % of control, the T/C (dose: 25.0 mg/kg/injection, schedule: Q04DX003 (ip), vehicle: saline) was 102 % of control and the T/C (dose: 50.0 mg/kg/injection, schedule: Q04DX003 (ip), vehicle: saline with Tween-80) was 97 % of control. For the same compound, the T/C (dose: 50.0 mg/kg/injection, schedule: Q04DX003 (ip), vehicle: saline) was 100 % of control, the T/C [1] was 102 % of control and the T/C (dose: 200.0 mg/kg/injection, schedule: Q04DX003 (ip), vehicle: saline with Tween-80) was 100 % of control. The T/C (dose: 400.0 mg/kg/injection, schedule: Q04DX003 (ip), vehicle: saline with Tween-80) was 104 % of control.

For `O=S1(=O)CC2(N3CCOCC3)CCCCC21` (centres undefined), the T/C [2] was 102 % of control and the T/C [3] was 104 % of control.

With `N=C(N)c1nn(C2OC(CO)C(O)C2O)c2ncnc(N)c12` (centres undefined) the T/C (dose: 0.78 mg/kg/injection, schedule: Q01DX009 (ip), vehicle: Klucel (hydroxypropylcellulose) (HPC)) was 97 % of control, the T/C (dose: 1.56 mg/kg/injection, schedule: Q01DX009 (ip), vehicle: Klucel (hydroxypropylcellulose) (HPC)) was 98 % of control and the T/C (dose: 3.12 mg/kg/injection, schedule: Q01DX009 (ip), vehicle: Klucel (hydroxypropylcellulose) (HPC)) was 93 % of control and 99 % of control. For the same compound, the T/C [4] was 102 % of control, the T/C [5] was 90 % of control and the T/C [6] was 101 % of control.

For `COc1cc(O)c2c(O)c3c(c4c2c1[C@]1(C4)C(C)=CCCC1(C)C)[C@H](O)[C@@]1(O)CC(=O)C(C(N)=O)=C(O)[C@@]1(O)C3=O`, the T/C (dose: 6.0 mg/kg/injection, schedule: Q01DX009 (ip), vehicle: saline with Tween-80) was 97 % of control, the T/C (dose: 6.25 mg/kg/injection, schedule: Q04DX003 (ip), vehicle: saline with Tween-80) was 112 % of control and the T/C (dose: 12.5 mg/kg/injection, schedule: Q04DX003 (ip), vehicle: saline with Tween-80) was 116 % of control. For the same compound, the T/C [7] was 121 % of control.

In the case of `[N-]=[N+]=C1Cc2ccccc2C1=O`, the T/C [8] was 97 % of control and the T/C [9] was 105 % of control.

In the case of `CCN(CC)CCCN1c2ccccc2Sc2ccc(Cl)cc21`, the T/C [10] was 91 % of control, the T/C [11] was 104 % of control and the T/C (dose: 3.12 mg/kg/injection, schedule: Q01DX009 (ip), vehicle: saline) was 102 % of control. The T/C [12] was 93 % of control and the T/C [13] was 91 % of control.

For `CN(C)c1ccc(/C=C/c2cc[n+](C)cc2)cc1`, the T/C (dose: 1.32 mg/kg/injection, schedule: Q04DX003 (ip), vehicle: saline with Tween-80) was 95 % of control, the T/C (dose: 4.0 mg/kg/injection, schedule: Q04DX003 (ip), vehicle: saline with Tween-80) was 150 % of control and the T/C (dose: 8.0 mg/kg/injection, schedule: Q04DX003 (ip), vehicle: saline with Tween-80) was 117 % of control.

With `Oc1ccc(Nc2c3ccccc3nc3c2ccc2ccccc23)cc1CN(CCCl)CCCl` the T/C (dose: 0.3 mg/kg/injection, schedule: Q01DX009 (ip), vehicle: saline) was 100 % of control, the T/C (dose: 0.45 mg/kg/injection, schedule: Q01DX009 (ip), vehicle: saline) was 117 % of control and the T/C (dose: 0.8 mg/kg/injection, schedule: Q01DX009 (ip), vehicle: saline) was 100 % of control. The T/C (dose: 1.2 mg/kg/injection, schedule: Q01DX009 (ip), vehicle: saline) was 107 % of control.

In the case of `Cc1ccc(C)c(C(O)C2CC2)c1` (centres undefined), the T/C [14] was 104 % of control and the T/C [2] was 100 % of control.

For `C1CC[N-]CC1.C1CC[N-]CC1.[Cl][Rh]([Cl])[Cl]`, the T/C [15] was 100 % of control, the T/C [16] was 95 % of control and the T/C [14] was 102 % of control. For the same compound, the T/C [2] was 94 % of control and the T/C [3] was 96 % of control.

With `C(=C\c1cnc2ccccc2n1)/c1ccc2c(c1)OCO2` the T/C (dose: 75.0 mg/kg/injection, schedule: Q01DX009 (ip), vehicle: Klucel (hydroxypropylcellulose) (HPC)) was 105 % of control and the T/C (dose: 150.0 mg/kg/injection, schedule: Q01DX009 (ip), vehicle: Klucel (hydroxypropylcellulose) (HPC)) was 94 % of control.

For `O=C1CCC(c2ccccc2)=NN1`, the T/C [17] was 102 % of control, the T/C [15] was 102 % of control and the T/C [16] was 102 % of control. The T/C [14] was 89 % of control and 94 % of control.

With `CCOc1ccccc1NC(=O)Nc1ccccc1Cl` the T/C [2] was 103 % of control, the T/C [3] was 94 % of control and the T/C (dose: 400.0 mg/kg/injection, schedule: Q01DX009 (ip), vehicle: saline with Tween-80) was 89 % of control.

`COc1ccc(C=Nc2ccc(Cl)cc2)cc1` was tested, and the T/C [18] was 104 % of control, the T/C [8] was 103 % of control and the T/C [9] was 106 % of control.

`C1OCN2CSCC12` (centres undefined) was tested, and the T/C [15] was 108 % of control, the T/C [16] was 109 % of control and the T/C [14] was 101 % of control. The T/C [2] was 106 % of control.

`COc1cc2cc[n+](C)cc2cc1OC` was tested, and the T/C (dose: 6.25 mg/kg/injection, schedule: Q01DX009 (ip), vehicle: water) was 95 % of control, the T/C (dose: 12.5 mg/kg/injection, schedule: Q01DX009 (ip), vehicle: water) was 95 % of control and the T/C (dose: 25.0 mg/kg/injection, schedule: Q01DX009 (ip), vehicle: water) was 97 % of control. For the same compound, the T/C (dose: 50.0 mg/kg/injection, schedule: Q01DX009 (ip), vehicle: water) was 92 % of control.

For `CCOc1ccc(NC(=O)OCCN2CCN(CCc3ccccc3)C(C)C2)cc1` (centres undefined), the T/C [16] was 108 % of control, the T/C [14] was 113 % of control and the T/C [2] was 101 % of control.

For `C=CCNC(=O)/C=C/C(=O)NCC=C`, the T/C [7] was 123 % of control and the T/C [1] was 121 % of control.

With `CN(C)C1=NC(=O)C(c2ccccc2)O1` (centres undefined) the T/C [13] was 117 % of control, the T/C (dose: 25.0 mg/kg/injection, schedule: Q01DX009 (ip), vehicle: saline) was 105 % of control and the T/C (dose: 50.0 mg/kg/injection, schedule: Q01DX009 (ip), vehicle: saline) was 111 % of control. For the same compound, the T/C [19] was 114 % of control.

For `CCC/C=C/C=C/C1CC(O)C(O)C(=O)C1C=O` (centres undefined), the T/C (dose: 1.6 mg/kg/injection, schedule: Q01DX009 (ip), vehicle: saline with Tween-80) was 105 % of control, the T/C (dose: 3.12 mg/kg/injection, schedule: Q01DX009 (ip), vehicle: saline with Tween-80) was 104 % of control and the T/C [17] was 98 % of control. The T/C [15] was 98 % of control and 100 % of control.

`Nc1ccc(-c2ccc3ccccc3n2)cc1` was tested, and the T/C [4] was 111 % of control, the T/C [5] was 104 % of control and the T/C [6] was 91 % of control.

With `CCC(C)OC(N)=O` (centres undefined) the T/C [19] was 123 % of control.

In the case of `CCOC(=O)Oc1c(OC)cc(C(=O)O[C@@H]2C[C@@H]3CN4CCc5c([nH]c6cc(OC)ccc56)[C@H]4C[C@@H]3[C@H](C(=O)OC)[C@H]2OC)cc1OC`, the T/C (dose: 0.09 mg/kg/injection, schedule: Q01DX009 (ip), vehicle: saline) was 98 % of control, the T/C (dose: 0.19 mg/kg/injection, schedule: Q01DX009 (ip), vehicle: saline) was 93 % of control and the T/C (dose: 0.39 mg/kg/injection, schedule: Q01DX009 (ip), vehicle: saline) was 124 % of control. For the same compound, the T/C [10] was 101 % of control, the T/C [11] was 112 % of control and the T/C [4] was 87 % of control.

`CNC(Cc1ccccc1)C1CCCCC1` (centres undefined) was tested, and the T/C (dose: 6.25 mg/kg/injection, schedule: Q04DX003 (ip), vehicle: Klucel (hydroxypropylcellulose) (HPC)) was 102 % of control, the T/C (dose: 12.5 mg/kg/injection, schedule: Q04DX003 (ip), vehicle: Klucel (hydroxypropylcellulose) (HPC)) was 100 % of control and the T/C (dose: 25.0 mg/kg/injection, schedule: Q04DX003 (ip), vehicle: Klucel (hydroxypropylcellulose) (HPC)) was 96 % of control.

In the case of `Cc1cc2nc3ccc(N)cc3oc-2cc1=[N+](C)C`, the T/C [4] was 105 % of control, the T/C [12] was 123 % of control and the T/C [5] was 110 % of control. The T/C [13] was 119 % of control and the T/C [6] was 117 % of control.

With `CC(NC(C)c1ccccc1)c1ccccc1` (centres undefined) the T/C [6] was 93 % of control, the T/C [18] was 106 % of control and the T/C [8] was 96 % of control.
